{"source": "patent EP0098942A1", "about": "“Optically active imidazolylpropanol compounds, and their production and use” (SUMITOMO CHEMICAL COMPANY, LIMITED, priority 1982, dated 1984)", "key": {"[1]": {"system": "Candida albicans, strain KB-8 (clinical isolate)", "assay": "In vitro inhibition of pseudomycelium formation", "format": "cell-based", "details": "effective dose to inhibit formation of pseudomycelium, light microscopy at 72 hours after inoculation, Eagle's MEM, 37°C, 5 % CO2, read-out: Minimum effective dose", "method": "Candida albicans, strain KB-8 (clinical isolate), was maintained on Sabouraud's agar slants at room temperature. Yeast cells were grown at 37°C on Sabouraud's agar and a loopful from a 24 hours' slant was inoculated in 4.5 ml of Sabouraud's broth and cultured at 37°C for 24 hours. A 0.5 ml aliquot of this culture was inoculated in 100 ml of a casein hydrolysate yeast-extract glucose medium (CYG medium). Cells were grown at 37°C aerobically in a reciprocating shaker for 48 hours. From this culture, a 0.2 ml aliquot was again inoculated in 100 ml CYG medium and grown for another 24 hours at 37°C while shaking.\nThe pseudomycelium growth-promoting medium consisted of Eagle's minimal essential medium supplemented with non-essential amino acids and sodium bicarbonate (2 g/liter). Yeast cells were seeded at densities of 1.0 x 10^5/ml in sterile culture tubes (010 x 100 mm) containing 3 ml of medium. Cells were grown in a humidified atmosphere of 5 % C02 in air at 37°C.\nThe effects of the test compound were evaluated . under the following conditions: the cultures were exposed to the test compound in doses ranging from […] to 10^-4 M; the solvent for the test compound was added as an aqueous solution. Pseudomycelium development was observed by light microscopy at 72 hours after inoculation."}, "Candida albicans KB-8": {"system": "Candida albicans KB-8", "assay": "Number of viable cells in the kidney of Candida-infected mice", "format": "in vivo, DDY strain male mice", "details": "per os, total dose 20 mg/kg; for Medicated group, number of cells in kidney (cell/g): given immediately and 5 hours after infection, kidneys taken 24 hours after infection; for Medicated/ Non-medicated (logarithmic value): kidney cell count 24 hours after infection, non-medicated group 1.45x10^5 cell/g", "method": "Candida albicans KB-8 was cultured on a Sabouraud's agar plate admixed with blood in a concentration of 5 % (v/v) - at 30°C for 4 days, suspended in physiologically saline solution and diluted to approximately 10,000,000 cells/ml. DDY strain male mice were […] via the tail vein with 0.2 ml of this suspension.\nThe animals were orally medicated with the test compound in the form of 0,5 % (w/v) methylcellulose supension at a total dose of 20 mg per kg of the body weight immediately and 5 hours after the infection.\nAfter 24 hours from the infection, the animals were sacrificed, and the kidneys were taken out. After the kidneys were homogenized in 4 fold sterilized physiologically saline solution, a certain amount of the suspension was scattered on a Sabouraud's agar plate and cultured at 37°C for 48 hours. Then, the number of colonies was counted, the number of cells per one gram of the kidney was calculated, and the difference between the calculated numbers in the medicated group and in the non- medicated group was expresed by a logarithmic value."}}}
{"compound": "CCCCSCC(O)(Cn1ccnc1)c1ccc(Cl)cc1Cl", "note": "(racemic) [A]", "values": [{"measurement": "minimal effective concentration", "setting": "[1]", "result": 0.1, "unit": "µM"}, {"measurement": "Medicated group, number of cells in kidney (cell/g)", "setting": "Candida albicans KB-8", "result": "1.86x10^3 cell/g"}, {"measurement": "Medicated/ Non-medicated (logarithmic value)", "setting": "Candida albicans KB-8", "result": -1.89}]}
{"compound": "CCCCSC[C@@](O)(Cn1ccnc1)c1ccc(Cl)cc1Cl", "note": "[B, (S)-3-(n-butylthio)-2-(2,4-dichlorophenyl)-1-(imidazol-1-yl)-2-propanol]", "values": [{"measurement": "minimal effective concentration", "setting": "[1]", "result": 1, "unit": "µM"}, {"measurement": "Medicated group, number of cells in kidney (cell/g)", "setting": "Candida albicans KB-8", "result": "1.82x10^4 cell/g"}, {"measurement": "Medicated/ Non-medicated (logarithmic value)", "setting": "Candida albicans KB-8", "result": -0.90}]}
{"compound": "CCCCSC[C@](O)(Cn1ccnc1)c1ccc(Cl)cc1Cl", "note": "[I (n=3), (R)-3-(n-butylthio)-2-(2,4-dichlorophenyl)-1-(imidazol-1-yl)-2-propanol]", "values": [{"measurement": "minimal effective concentration", "setting": "[1]", "result": 0.001, "unit": "µM"}, {"measurement": "Medicated group, number of cells in kidney (cell/g)", "setting": "Candida albicans KB-8", "result": "1.41x10^3 cell/g"}, {"measurement": "Medicated/ Non-medicated (logarithmic value)", "setting": "Candida albicans KB-8", "result": -2.01}]}
